Test results from patent US20210293825A1, “METHODS FOR PRECISION THERAPEUTIC TARGETING OF HUMAN CANCER CELL MOTILITY AND KITS THEREOF” (UNITED STATES GOVERNMENT AS REPRESENTED BY THE DEPARTMENT …, priority 2018, published 2021).

Key:
[1] = biological target: T1, phosphorylation of HSP90β (Homo sapiens, UniProt P08238+Q16543); test: HSP90β/CDC37 heterocomplex in vitro kinase assay with SGK3 and MAP3K6; type: biochemical
T1 construct: MAP3K6: Abnova SGK3: #PV3859; MAP3K6: #P5592; host or cells: E. coli for HSP90β and CDC37
Experimental: HEK293T cells were transfected with 1 of 420 different protein kinases, treated with 10 μM KBU2046 (N=5 replicates) or vehicle control (N=5) for three days, and LUMIER assays performed. The N=17 kinases that gave significant findings (Student's t-test <0.05) in the same direction in each of two separate experiments are depicted. Each separate treatment and kinase condition in each of two separate experiments was conducted in replicates of N=5. […] FIGS. 6c and 6d show the results of the wound healing assay. PC3 cells were transfected with siRNA targeting RAF1 (si-Raf1) or non-targeting siRNA (si-control), treated with KBU2046 or vehicle as above, and RAF1 protein measured by Western blot (c) and effects upon wound healing measured (d). […] Purified recombinant HSP90β, CDC37, and RAF1 were combined with KBU2046, as indicated, incubated in an in vitro kinase assay for the indicated times, and Western blot for RAF1-Ser^338 phosphorylation performed. FIGS. 6f and 6g show the effect on HSP90β/CDC37 heterocomplex formation and function in vitro. Purified recombinant HSP90β, CDC37, RAF1, SGK3 or MAP3K6 were combined and treated with KBU2046 or vehicle control, as indicated, incubated in an in vitro kinase assay for the indicated times, and Western blot performed, as denoted. Experiments were repeated at separate times at least once, with similar results. […]

[2] = Histologic examination of tissue / systemic off-target effects; type: in vivo, Balb/c athymic mice
Experimental: Histologic examination of tissue. Organs of athymic male mice stained with H&E, Trichrome or Giemsa were microscopically examined by a mouse pathologist in a blinded fashion, and toxicity scored using an established semi-quantitative histological scoring system (Knodell, R. G. et al., Hepatology 1, 431-5 (1981)) (FIG. 14). The following clinical chemistry parameters were measured in blood of CD1 male and female mice by Charles River Research Animal Diagnostic Services: cholesterol, triglycerides, alanine aminotransferase (ALT), aspartate aminotransferase (AST), total bilirubin, glucose, phosphorus, total protein, calcium, blood urea nitrogen (BUN), creatinine, albumin, Na, K, Cl, white blood cells (with differential), red blood cells, hemoglobin, and platelets.
After 35 days of treatment, the following organs were harvested at necropsy, and stained with H&E (alternative staining methods as indicated): heart, lungs, esophagus, stomach, colon, small intestine, liver (Trichrome staining), kidneys (Trichrome staining), adrenals, bladder, prostate, spleen, pancreas, brain, testes, and bone marrow and peripheral blood (Giemsa staining). Organs were examined for damage using a semi-quantitative histological scoring system, as described (Knodell, R. G. et al., Hepatology 1, 431-5 (1981)). […] Note that mice were immunocompromised, and that changes in the liver reflected episodic and minor foci of necrosis, consistent with a prior resolved infection; clinically, mice were all healthy. The graph above depicts the scoring of liver lesions, with each data point representing a single mouse.

[3] = biological target: T2, MKK4 (Homo sapiens, UniProt P45985, S257E/T261E); test: Fluorescence-based thermal shift assay, MKK4; type: binding; set-up: made in house
T2 sequence (P45985 37-399 S257E/T261E): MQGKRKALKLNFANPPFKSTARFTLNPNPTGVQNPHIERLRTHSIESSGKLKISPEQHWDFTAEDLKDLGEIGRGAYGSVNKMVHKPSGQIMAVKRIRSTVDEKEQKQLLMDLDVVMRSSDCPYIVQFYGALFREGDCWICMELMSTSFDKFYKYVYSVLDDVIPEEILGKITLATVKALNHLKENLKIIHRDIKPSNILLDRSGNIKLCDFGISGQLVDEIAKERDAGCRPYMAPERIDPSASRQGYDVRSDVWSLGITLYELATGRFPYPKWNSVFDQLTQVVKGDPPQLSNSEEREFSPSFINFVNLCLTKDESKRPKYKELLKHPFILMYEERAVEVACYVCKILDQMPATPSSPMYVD
Experimental: FIG. 16a is a depiction of established MKK4 pathway regulating human PCa cell metastasis. […] Values are the mean±SD (of N=2 replicates) increase in melting temperature (ΔTm) of purified recombinant MKK4 induced by the indicated concentrations of KBU2046 or genistein. […] The indicated concentrations of KBU2046 were added to recombinant activated MKK4, and its ability to phosphorylate kinase dead p38a MAPK (K53A) was measured by Western blot for total (p38 MAPK) and phosphorylated (pp38 MAPK) forms of p38 MAPK. […] PC3-M cells were pre-treated for 24 hours with 50 μM KBU2046 or genistein, as indicated, then with TGFβ, and Western blot performed. These findings are from a single experiment, with similar findings in identical separate experiments, repeated at least once.
Biophysical and Biochemical Binding Assays. Fluorescent thermal shift (Krishna, S. N. et al., PLoS One 8, e81504 (2013)), isothermal titration calorimetry (Chavez, J. D. et al., Mol Cell Proteomics 12, 1451-67 (2013)), and biolayer interferometry assays (Makowska-Grzyska, M. et al., Biochemistry 51, 6148-63 (2012)), were performed using MEK4EE (37-399, S257E, T261E) cloned into pMCSG7 and KRX Competent E. coli cells (Promega Inc.) and full-length HSP90B and CDC37 vectors and Rosetta BL-21 and BL-21 DE-3 competent E. coli cells, respectively. […]

T1 sequence (P08238 2-724): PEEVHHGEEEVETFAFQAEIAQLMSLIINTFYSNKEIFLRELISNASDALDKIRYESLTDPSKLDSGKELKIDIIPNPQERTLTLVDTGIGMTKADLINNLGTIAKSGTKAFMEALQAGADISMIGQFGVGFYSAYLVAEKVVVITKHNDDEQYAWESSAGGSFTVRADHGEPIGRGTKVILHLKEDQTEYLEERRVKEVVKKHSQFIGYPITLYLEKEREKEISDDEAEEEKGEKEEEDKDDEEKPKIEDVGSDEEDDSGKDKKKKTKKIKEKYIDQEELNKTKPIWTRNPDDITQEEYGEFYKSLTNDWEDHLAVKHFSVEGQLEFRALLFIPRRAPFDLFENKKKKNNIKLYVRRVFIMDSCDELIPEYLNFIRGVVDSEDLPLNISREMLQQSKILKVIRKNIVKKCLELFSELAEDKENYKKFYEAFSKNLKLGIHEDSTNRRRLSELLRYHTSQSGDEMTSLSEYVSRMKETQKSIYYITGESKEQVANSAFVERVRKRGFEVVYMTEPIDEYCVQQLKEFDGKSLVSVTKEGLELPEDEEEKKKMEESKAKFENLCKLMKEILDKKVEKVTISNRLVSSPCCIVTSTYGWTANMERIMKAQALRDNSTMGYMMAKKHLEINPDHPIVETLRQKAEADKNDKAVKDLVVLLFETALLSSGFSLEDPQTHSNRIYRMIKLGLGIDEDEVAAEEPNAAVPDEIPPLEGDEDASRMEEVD
T1 sequence (Q16543 whole entry): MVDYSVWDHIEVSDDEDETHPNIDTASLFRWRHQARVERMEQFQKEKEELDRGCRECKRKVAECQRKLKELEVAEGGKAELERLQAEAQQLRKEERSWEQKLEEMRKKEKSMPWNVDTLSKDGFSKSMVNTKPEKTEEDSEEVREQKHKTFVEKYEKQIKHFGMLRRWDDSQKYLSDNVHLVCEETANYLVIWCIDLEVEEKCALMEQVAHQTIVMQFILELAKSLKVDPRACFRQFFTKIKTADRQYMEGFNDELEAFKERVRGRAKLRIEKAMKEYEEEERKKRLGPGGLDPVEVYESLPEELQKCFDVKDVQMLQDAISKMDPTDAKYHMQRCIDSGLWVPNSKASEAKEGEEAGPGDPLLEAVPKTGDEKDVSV

SMILES: O=C1c2ccccc2OCC1c1ccc(F)cc1 (racemic) [KBU2046, (±)-3(4-fluorophenyl)chroman-4-one]
- SGK3-mediated phosphorylation of HSP90β ([1]; MAP3K6 added): also decreases in the presence of KBU2046
- SGK3-mediated phosphorylation of HSP90β ([1]; SGK3 present): phosphorylation was further increased
- changes in the liver ([2]; 35 days of treatment in chow): not increased by KBU2046 treatment
- organ damage (histological scoring) ([2]; 35 days of treatment in chow): No organ damage was observed, except in the livers of both control and treatment mice
- off-target effects (tumor growth, behavior, weight, histology, serum chemistry) ([2]; mouse, in vivo): failed to identify KBU2046-associated off-target effects
- binding to MKK4 [3]: did not bind to MKK4
